Values of other authors as cited in patent US20070072813A1, “Methods for preventing and treating metabolic disorders and new pyrazole-O-glycoside derivatives” (priority 2005, published 2007).

Conditions: metformin on its own, in the diabetic

CN(C)C(=N)N=C(N)N [metformin]
average improvement in the HbA1c value: 1.0-1.5%
